Legend:
Toll-like receptor 2 = Toll-like receptor 2 (Homo sapiens, UniProt O60603); assay: Antagonist activity at TLR2 in human PBMC assessed as inhibition of Pam3CSK4-induced TNFalpha production preincubated for 30 mins followed by Pam3CSK4 addition and measured after 20 hrs by HTRF assay; assay type: cell-based
Cytochrome P450 3A4 = Cytochrome P450 3A4 (Homo sapiens, UniProt P08684); assay: Inhibition of CYP3A4 (unknown origin); assay type: ADME
[1] = biological target: T1, Interleukin-1 receptor type 1 (Homo sapiens, UniProt P14778); assay: Antagonist activity at IL1R in human PBMC assessed as inhibition of IL1beta-induced TNFalpha production preincubated for 30 mins followed by IL1beta addition and measured after 20 hrs by HTRF assay; assay type: cell-based
T1 sequence (P14778 whole entry): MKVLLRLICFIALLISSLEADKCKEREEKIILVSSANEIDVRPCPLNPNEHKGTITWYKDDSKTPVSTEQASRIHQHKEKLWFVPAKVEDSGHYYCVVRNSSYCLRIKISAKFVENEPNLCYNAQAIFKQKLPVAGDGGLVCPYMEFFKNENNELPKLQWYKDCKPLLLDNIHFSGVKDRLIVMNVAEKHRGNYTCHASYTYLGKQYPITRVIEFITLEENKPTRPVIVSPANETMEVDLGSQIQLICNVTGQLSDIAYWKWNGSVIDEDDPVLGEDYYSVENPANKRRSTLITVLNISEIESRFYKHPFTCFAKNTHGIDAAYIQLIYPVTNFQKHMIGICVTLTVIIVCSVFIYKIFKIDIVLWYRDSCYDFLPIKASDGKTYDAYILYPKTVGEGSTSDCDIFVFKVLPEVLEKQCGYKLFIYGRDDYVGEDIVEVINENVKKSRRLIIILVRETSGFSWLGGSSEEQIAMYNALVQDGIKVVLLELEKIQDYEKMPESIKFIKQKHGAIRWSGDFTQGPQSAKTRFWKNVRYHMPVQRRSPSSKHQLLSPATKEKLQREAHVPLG

Toll-like receptor 1 = biological target: T2, Toll-like receptor 1 (Homo sapiens, UniProt Q15399); assay: Antagonist activity at TLR1 in human PBMC assessed as inhibition of Pam3CSK4-induced TNFalpha production preincubated for 30 mins followed by Pam3CSK4 addition and measured after 20 hrs by HTRF assay; assay type: cell-based
T2 sequence (Q15399 whole entry): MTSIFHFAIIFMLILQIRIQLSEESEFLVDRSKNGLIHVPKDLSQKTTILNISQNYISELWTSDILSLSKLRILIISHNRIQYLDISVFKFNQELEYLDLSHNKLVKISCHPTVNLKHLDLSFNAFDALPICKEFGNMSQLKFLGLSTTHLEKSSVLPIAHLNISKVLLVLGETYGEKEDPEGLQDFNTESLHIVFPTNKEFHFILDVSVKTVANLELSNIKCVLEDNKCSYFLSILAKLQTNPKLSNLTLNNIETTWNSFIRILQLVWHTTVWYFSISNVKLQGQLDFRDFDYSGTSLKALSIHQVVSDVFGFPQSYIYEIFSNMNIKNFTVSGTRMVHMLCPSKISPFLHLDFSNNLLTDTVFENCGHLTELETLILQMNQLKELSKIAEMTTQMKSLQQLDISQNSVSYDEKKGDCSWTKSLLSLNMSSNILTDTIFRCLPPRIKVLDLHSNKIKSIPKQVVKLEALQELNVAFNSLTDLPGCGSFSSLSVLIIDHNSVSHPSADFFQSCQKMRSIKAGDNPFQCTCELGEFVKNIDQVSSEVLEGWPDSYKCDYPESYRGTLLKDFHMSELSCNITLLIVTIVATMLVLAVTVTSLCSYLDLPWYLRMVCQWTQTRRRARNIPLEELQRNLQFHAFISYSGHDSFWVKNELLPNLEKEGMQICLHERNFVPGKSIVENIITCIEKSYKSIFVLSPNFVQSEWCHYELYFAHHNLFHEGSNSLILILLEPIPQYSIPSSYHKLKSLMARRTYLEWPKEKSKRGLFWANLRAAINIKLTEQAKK

Toll-like receptor 9 [2] = biological target: T3, Toll-like receptor 9 (Homo sapiens, UniProt Q9NR96); assay: Antagonist activity at TLR9 in human PBMC assessed as inhibition of ODN2216-induced IFNalpha production preincubated for 30 mins followed by ODN2216 addition and measured after 20 hrs by alphaLISA; assay type: cell-based
T3 sequence (Q9NR96 whole entry): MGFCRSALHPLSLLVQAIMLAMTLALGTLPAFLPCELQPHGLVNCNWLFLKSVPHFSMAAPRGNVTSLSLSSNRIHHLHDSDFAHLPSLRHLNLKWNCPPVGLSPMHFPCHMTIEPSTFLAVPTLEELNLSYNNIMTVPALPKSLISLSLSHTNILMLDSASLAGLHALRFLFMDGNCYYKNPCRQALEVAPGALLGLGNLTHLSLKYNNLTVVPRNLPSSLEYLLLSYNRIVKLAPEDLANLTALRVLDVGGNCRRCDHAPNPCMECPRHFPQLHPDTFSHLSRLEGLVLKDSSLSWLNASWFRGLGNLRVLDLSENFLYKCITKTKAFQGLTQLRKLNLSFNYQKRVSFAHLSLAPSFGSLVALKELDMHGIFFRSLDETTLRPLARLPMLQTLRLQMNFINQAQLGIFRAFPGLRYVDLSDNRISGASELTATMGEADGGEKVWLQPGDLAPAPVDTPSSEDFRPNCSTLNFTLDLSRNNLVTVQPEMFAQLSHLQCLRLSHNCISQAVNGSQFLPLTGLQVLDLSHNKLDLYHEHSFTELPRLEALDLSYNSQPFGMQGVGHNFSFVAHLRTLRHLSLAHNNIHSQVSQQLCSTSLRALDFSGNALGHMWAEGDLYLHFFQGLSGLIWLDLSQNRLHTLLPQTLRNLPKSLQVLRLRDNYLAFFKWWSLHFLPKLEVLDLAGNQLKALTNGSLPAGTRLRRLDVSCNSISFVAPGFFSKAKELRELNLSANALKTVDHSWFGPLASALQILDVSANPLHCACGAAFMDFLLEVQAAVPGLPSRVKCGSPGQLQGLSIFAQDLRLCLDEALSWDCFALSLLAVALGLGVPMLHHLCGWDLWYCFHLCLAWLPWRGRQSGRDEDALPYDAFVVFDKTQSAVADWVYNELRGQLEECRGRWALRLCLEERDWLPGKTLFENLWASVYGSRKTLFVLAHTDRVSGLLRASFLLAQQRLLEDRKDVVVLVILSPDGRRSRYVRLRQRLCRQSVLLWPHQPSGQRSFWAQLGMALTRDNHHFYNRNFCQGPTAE

Toll-like receptor 5 = Toll-like receptor 5 (Homo sapiens, UniProt O60602); assay: Antagonist activity at TLR5 in human PBMC assessed as inhibition of flagellin-induced TNFalpha production preincubated for 30 mins followed by flagellin addition and measured after 20 hrs by HTRF assay; assay type: cell-based
Chain of Toll-like receptor 5 (O60602 whole entry): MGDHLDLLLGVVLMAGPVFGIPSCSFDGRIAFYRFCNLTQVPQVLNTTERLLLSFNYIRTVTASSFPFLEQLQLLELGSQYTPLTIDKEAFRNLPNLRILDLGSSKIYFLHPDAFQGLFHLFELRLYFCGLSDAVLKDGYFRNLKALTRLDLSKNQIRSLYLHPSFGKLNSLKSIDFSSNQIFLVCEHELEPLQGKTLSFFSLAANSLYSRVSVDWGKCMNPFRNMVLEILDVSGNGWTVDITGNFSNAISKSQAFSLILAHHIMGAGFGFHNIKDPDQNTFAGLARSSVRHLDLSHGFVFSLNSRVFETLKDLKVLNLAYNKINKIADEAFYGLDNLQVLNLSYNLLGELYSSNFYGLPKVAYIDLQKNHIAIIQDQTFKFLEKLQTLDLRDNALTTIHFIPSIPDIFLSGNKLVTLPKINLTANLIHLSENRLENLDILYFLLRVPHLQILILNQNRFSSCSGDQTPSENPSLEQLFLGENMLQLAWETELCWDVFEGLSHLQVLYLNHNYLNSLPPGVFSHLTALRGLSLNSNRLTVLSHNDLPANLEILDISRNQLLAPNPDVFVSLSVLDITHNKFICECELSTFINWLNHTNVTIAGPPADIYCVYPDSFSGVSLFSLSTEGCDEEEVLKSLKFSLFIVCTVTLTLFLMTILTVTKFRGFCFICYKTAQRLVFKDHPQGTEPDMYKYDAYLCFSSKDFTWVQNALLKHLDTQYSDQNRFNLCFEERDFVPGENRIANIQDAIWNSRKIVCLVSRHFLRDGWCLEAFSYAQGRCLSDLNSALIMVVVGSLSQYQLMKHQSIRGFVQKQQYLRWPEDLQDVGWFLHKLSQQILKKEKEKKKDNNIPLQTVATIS

Toll-like receptor 9 [3] = biological target: T3, Toll-like receptor 9; assay: Antagonist activity at TLR9 in human whole blood inhibition of DOTAP-ODN2216-induced IFNalpha production preincubated for 30 mins followed by DOTAP-ODN2216 addition and measured after 20 hrs by ELISA; assay type: tissue-based

Chain of Toll-like receptor 2 (O60603 whole entry): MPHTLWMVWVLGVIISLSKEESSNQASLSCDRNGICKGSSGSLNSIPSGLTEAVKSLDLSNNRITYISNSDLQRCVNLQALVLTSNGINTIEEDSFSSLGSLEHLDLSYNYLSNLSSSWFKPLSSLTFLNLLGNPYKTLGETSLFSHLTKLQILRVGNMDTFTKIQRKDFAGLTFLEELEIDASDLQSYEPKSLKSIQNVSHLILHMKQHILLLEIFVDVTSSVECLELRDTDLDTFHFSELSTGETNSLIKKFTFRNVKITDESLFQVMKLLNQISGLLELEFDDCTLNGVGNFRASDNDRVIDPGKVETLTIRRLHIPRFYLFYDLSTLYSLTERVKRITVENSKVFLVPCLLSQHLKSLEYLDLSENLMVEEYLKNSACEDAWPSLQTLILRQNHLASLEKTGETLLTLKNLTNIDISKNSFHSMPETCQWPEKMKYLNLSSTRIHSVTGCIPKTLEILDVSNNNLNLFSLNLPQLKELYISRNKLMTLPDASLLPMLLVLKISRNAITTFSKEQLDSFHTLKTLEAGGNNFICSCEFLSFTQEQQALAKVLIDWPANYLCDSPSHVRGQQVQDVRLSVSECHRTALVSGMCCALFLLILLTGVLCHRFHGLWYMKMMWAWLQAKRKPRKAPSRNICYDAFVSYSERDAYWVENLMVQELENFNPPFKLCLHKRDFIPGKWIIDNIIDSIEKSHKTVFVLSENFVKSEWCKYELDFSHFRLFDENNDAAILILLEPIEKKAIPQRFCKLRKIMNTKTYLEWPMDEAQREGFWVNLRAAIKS
Chain of Cytochrome P450 3A4 (P08684 whole entry): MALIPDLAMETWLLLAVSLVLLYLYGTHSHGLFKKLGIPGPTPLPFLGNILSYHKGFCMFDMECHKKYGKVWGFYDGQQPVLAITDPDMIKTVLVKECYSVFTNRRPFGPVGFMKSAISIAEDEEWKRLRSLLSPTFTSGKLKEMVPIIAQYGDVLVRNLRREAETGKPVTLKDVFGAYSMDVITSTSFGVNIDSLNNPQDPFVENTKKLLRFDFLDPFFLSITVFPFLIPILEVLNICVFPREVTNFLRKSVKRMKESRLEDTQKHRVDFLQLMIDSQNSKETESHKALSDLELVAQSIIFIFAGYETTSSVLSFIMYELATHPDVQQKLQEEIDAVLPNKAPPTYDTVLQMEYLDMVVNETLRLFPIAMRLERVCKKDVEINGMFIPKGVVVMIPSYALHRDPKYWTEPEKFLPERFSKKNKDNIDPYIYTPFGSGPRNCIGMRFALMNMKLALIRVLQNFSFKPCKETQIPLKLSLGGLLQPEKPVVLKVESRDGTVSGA

In the case of `O=c1ccc(-c2cc(C(F)(F)F)c3nn([C@H]4CCNC[C@@H]4F)cc3c2)c2n1CCC2`, the IC50 (Toll-like receptor 2) is reported as > 6.5 µM, the IC50 (Cytochrome P450 3A4) is reported as > 25 µM and the IC50 [1] is reported as > 6.5 µM. For the same compound, the IC50 (Toll-like receptor 1) was > 6.5 µM, the IC50 (Toll-like receptor 9 [2]) was > 5.3 µM and the IC50 (Toll-like receptor 5) was > 6.5 µM. For the same compound, the IC50 (Toll-like receptor 9 [3]) was > 10 µM.
